Five compounds from ChEMBL document CHEMBL1130983, “New acetylene based histamine H3 receptor antagonists derived from the marine natural product verongamine” (Bioorg Med Chem Lett, 1998) can be followed below.

The species named for assay [1] is Cavia porcellus. The assay is described as follows: In vitro activity on K+ induced R-alpha methyl histamine mediated inhibition of norepinephrine release from guinea pig cardiac synaptosomes. It is filed as functional.
Assay [2] concerns the target T1, Histamine H3 receptor (Rattus norvegicus, UniProt Q9QYN8). The assay is described as follows: Inhibition of [3H]- N-alpha-methylhistamine from histamine H3 receptor.
Assay [3] addresses T1, Histamine H3 receptor. The assay is described as follows: Antagonistic activity was evaluated against histamine H3 receptor using [3H]- N-alpha-methylhistamine as radioligand in experiment 2. Type of assay: functional.
Assay [4] is filed under the species Rattus norvegicus. The assay is described as follows: Effective dose was evaluated for blood brain penetration using ex vivo binding techniques. It is filed as functional.

T1 sequence (Q9QYN8 whole entry): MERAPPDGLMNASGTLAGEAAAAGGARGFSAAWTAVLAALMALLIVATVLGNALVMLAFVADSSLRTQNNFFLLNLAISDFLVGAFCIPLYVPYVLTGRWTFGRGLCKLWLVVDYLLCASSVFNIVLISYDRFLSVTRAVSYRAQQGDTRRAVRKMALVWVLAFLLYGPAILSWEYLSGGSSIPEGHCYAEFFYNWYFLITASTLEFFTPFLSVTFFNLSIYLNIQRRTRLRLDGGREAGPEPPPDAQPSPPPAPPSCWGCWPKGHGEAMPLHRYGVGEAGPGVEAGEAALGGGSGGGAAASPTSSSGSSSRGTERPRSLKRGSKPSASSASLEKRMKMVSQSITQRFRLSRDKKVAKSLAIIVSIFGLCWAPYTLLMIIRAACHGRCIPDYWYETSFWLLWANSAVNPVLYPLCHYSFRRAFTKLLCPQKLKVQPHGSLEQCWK

`Cn1cncc1CCN` yielded a Release in assay [1] of 106%. The same compound yielded a Ki in assay [2] of 1 nM.

`S=C(NC1CCCCC1)N1CCC(c2cnc[nH]2)CC1` [THIOPERAMIDE] came in with a Ki in assay [3] of 1.54 nM.

On to `COc1ccc(C/C(=N\O)C(=O)NCCc2c[nH]cn2)cc1Br` [VERONGAMINE], for which affinity in assay [2] was put at a Ki of 0.5 nM. In the case of `C(#CCCC1CCCC1)CCc1c[nH]cn1`, in assay [1], the Release was found to be 111%. This compound gave an ED50 in assay [4] of 0.48 mg/kg. For `C(#CCCC1CCCCC1)CCc1c[nH]cn1` the same measures were 122% and 0.43 mg/kg.
